Results: patent US20210290742A1, “METHODS OF USING LYSINE DEACETYLASE (KDAC) INHIBITION TO GENERATE ANTIGEN SPECIFIC MEMORY T CELL RESPONSES FOR DURABLE IMMUNOTHERAPY” (ARIZONA BOARD OF REGENTS ON BEHALF OF THE UNIVERSITY OF …, priority 2018, published 2021)

Experiments:
mTORC1 = mTORC1 activity by intracellular flow cytometry of pS6K in antigen stimulated CD8+ T cells; assay type: cell-based, murine; conditions: TSA pretreatment, 4 and 8 hours post-antigen stimulation of naïve OT-1 T cells
Description: (§1) Lysates from naïve OT-1 cells served as a control (N). Cell lysates were prepared at 0, 15, 60, or 120 minutes post-stimulation and analyzed for p-LcK^Tyr394, p-Zap70, p-PKCe and β-tubulin levels by Western blot analysis. […] The normalized values at indicated time-points are plotted. […] Naïve (shaded histograms, antigen alone (solid line histogram) and antigen plus TSA (histogram indicated by arrow). Error bars are the standard error of mean (SEM) values obtained from three independent experiments. Naïve OT-1 T cells were pre-treated with TSA for 30 minutes and then stimulated with Ag (microspheres bearing H-2K^b/cognate 8 amino acid peptide/B7-1), (h: hour: N: Naïve; A: Ag; A+T: Ag+TSA).
(§2) Examples 1-0 were obtained from a murine transgenic model, from which in vitro stimulated naïve cells were isolated from TCR transgenic mice (OT-1/Rag -/-). […]
(§3) Western blot analysis was conducted to compare the level of phosphorylation of early TCR signaling proteins, Lck, Zap70, and PKCθ, by TSA pre-treatment of antigen stimulated CD8+ T cells. […] Since, the energy sensitive kinase mTORC1 serves as an integrative node for extracellular signals that initiate naïve CD8+ T cells activation, the mTORC1 activity was assessed by measuring the phosphorylation state of the mTORC1 target ribosomal […] (p-S6) by intracellular flow cytometry (FIG. 3D).

[1] = test system: TCR proximal signaling (Lck, Zap70, PKCθ phosphorylation); test: Western blot of early TCR signaling proteins (p-Lck, p-Zap70, p-PKCθ) in antigen stimulated CD8+ T cells; assay type: cell-based, murine; conditions: TSA pre-treatment 30 minutes 2.5 ng/ml, vs Ag alone
Description: as §1
(§4) Examples 1-0 were obtained from a murine transgenic model, from which in vitro stimulated naïve cells were isolated from TCR transgenic mice (OT-1/Rag -/-). In brief, the CD8+ T cells obtained from nave TCR transgenic mice (OT-1/Rag -/-) mice were stimulated in vitro with latex microspheres on which major histocompatibility complex (MHC) Class I (H-2Kb) dimers bearing 10 nM of cognate peptide (Ag) were immobilized, along with 1 μg/ml of recombinant murine […] (co-stimulation) and 2 ng/ml of rmIL-12 (cytokine) (FIG. 1).
as §3

[2] = test system: antigen stimulated CD8 High and CD8 Low T cells; test: mTORC1 activity, cell cycle and proliferation of FACS sorted CD8 High and CD8 Low cells at 48 h; assay type: cell-based, murine; conditions: total 48 hours
Description: Gating strategies and growth profiles of antigen alone (Ag) or TSA induced antigen (Ag+TSA) at 48 hours are shown for CD8 High and CD8 Low populations. Ag and Ag+TSA CD8+ T-cell cultures were FACS sorted on the basis of CD8α expression. […] Solid line histograms represent Ag or Ag+TSA CD8 or High cells and shaded histograms are unstimulated naïve CD8+ T cells. […] Solid line histograms represent Ag or Ag+TSA CD8 Low or High cells and shaded histograms are unstimulated naïve CD8+ T cells. […] Error bars are the standard error of mean (SEM) values obtained from three independent experiments. (h: hour; hi: high; lo: low).
as §4
To determine the implications of the TSA-mediated tuned percentage of CD8 expression on the growth profile, of these cells, the 24 hours Ag and Ag # TSA CD8+ T cells were separated by FACS sorting on the basis of their CD8 expression (FIGS. 5A-5H).

[3] = test system: antigen stimulated CD8+ T cells; test: CD8 expression asymmetry in antigen stimulated CD8+ T cells at 24 h; assay type: cell-based, murine; conditions: TSA pre-treated, within 24 h, vs Ag alone
Description: Results shown are representative of three independent experiments with identical outcomes. (h: hour; hi high; lo; low).
as §4
Accumulating evidence implicates a deterministic role for cellular asymmetry in antigen induced CD8+ T cells division and functional maturation. The KDACi-mediated reduced TCR signaling and mTOR activity were examined to determine their effect on the induction of inherent asymmetry produced in antigen stimulated CD8+ T cells (FIGS. 4A-4D). […] This could be attributed to the lower threshold of early activation/TCR signaling cues available to the TSA primed CD8+ T cells.

[4] = test system: naïve CD8+ (OT-I) T cells; test: Antigen-induced early activation of naïve CD8+ (OT-I) T cells, CD69/CD62L surface staining by flow cytometry; assay type: cell-based, murine; conditions: pre-treatment with TSA 2.5 ng/ml, antigen stimulation 4 hours, vs antigen alone
Description: KDAC inhibition with TSA at 2.5 ng/ml differentially regulates early activation phenotype of antigen stimulated CD8+ T cells. […] Naïve cells (control) are presented in shaded histograms, and antigen stimulated cells (Ag) are shown by the solid line histogram. […] The results shown are representative of five independent experiments with identical outcomes. (N: Naîve; A; Ag; A+T: Ag+TSA).
as §2
Cognate antigen presented by MHC Class 1 to irate CD8+ T cells in the context of co-stimulation and cytokine leads to rapid (2-4 hours) increases in CD69 expression and decreases in CD62L, which indicate antigen induced early T cell activation response. To characterize early activation of T cells, naïve CD8+(OT-I) T cells were reacted with antigen (Ag; latex microspheres bearing H-2Kb-Fc+/8 amoni acid cognate peptide/rmB7-1) in vitro for 4 hours, cell surface was stained for […] and CD69 expression and evaluated by flow cytometry. […]

Human Jurkat T cells = test: Early CD69 expression on stimulated Jurkat T cells; assay type: cell-based; conditions: TSA 10 ng/ml, anti-CD3/anti-CD28 stimulation, 2 and 4 hours
Description: Human Jurkat T Cells were incubated with anti-CD3/anti-0028 (Ag) in the presence or absence of TSA 10 ng/ml) or anti-CD45/CD28 (unstimulated) antibody mated chamber slides for indicated time points. The cells were harvested, counted and stained for CD69. […] FIGS. 10C and 10D show the percentage (% CD69) and their relative Mean Fluorescence intensity (MFI) at 2 and 4 hours, respectively (h: hour).
(§5) Examples 9-10 were obtained from human Jurkat cell line. Jurkat T cells were […]

[5] = test system: IL-2 gene expression in Human Jurkat cells; test: qPCR analysis of antigen-induced IL-2 gene expression in Jurkat T cells; assay type: cell-based; conditions: anti-CD3/anti-CD28 stimulated Jurkat T cells, 30 min to 16 h, presence vs absence of TSA
Description: IL-2 gene expression is shown in FIG. 11 in stimulated Jurkat T cells in presence or absence of ISA. Cells were incubated on the anti-CD3/anti-CD28 (stimulatory) or anti-CD45 (non-stimulatory) antibody coated chamber slides for 30 min to 16 h, then the total RNA was extracted and performed qPCR analysis of 1L-2 expression. Data shown are the mean fold change of ±SD of three independent experiments. Error bars represent standard deviations. *, statistically significant (p<0.05) and **, p=0.0071 with respect to the values obtained in the presence of TSA. ns, non-significant. (h: hour).
as §5

[6] = test system: antigen stimulated CD8+ T cells; test: Clonal expansion of antigen stimulated CD8+ T cells; assay type: cell-based, murine; conditions: TSA 2.5 ng/ml

CC(/C=C/C(=O)NO)=C\[C@@H](C)C(=O)c1ccc(N(C)C)cc1 [TSA, Trichostatin A]
mTORC1 activity (S6Kp) (mTORC1): dampened mTORC1 activity
phosphorylation of Zap70 ([1]; 60 minutes): reduction
phosphorylation of PKCθ ([1]; 120 minutes): reduction
phosphorylation of Lck ([1]; by 15 minutes): dampened
mTORC1 activity (S6Kp) in CD8 Hi cells ([2]; Ag+TSA CD8 Hi vs Ag alone CD8 Hi): higher
cell cycle phase of CD8 High cells ([2]; Ag+TSA CD8 High vs Ag CD8 Hi): enter S phase, comparable to the Ag CD8 Hi cells
cell cycle phase of CD8 Low cells ([2]; Ag+TSA CD8 Low vs Ag CD8 Low): retained in the G0-G1 phase of cell cycle and do not enter the S phase
mTORC1 activity (S6Kp) in CD8 Low cells ([2]; Ag+TSA CD8 Low vs Ag CD8 Low): reduced
proportion of cells with increased expression of CD8 [3]: lesser proportion of cells to have increased expression of CD8 as compared to Ag alone
CD62L shedding [4]: increases CD62L shedding
CD69 expression [4]: reduces antigen dose dependent CD69 expression
early antigen stimulation (CD69 expression) (Human Jurkat T cells): dampens early antigen stimulation of Jurkat T cells
IL-2 gene expression [5]: reduces IL-2 gene expression
clonal expansion [6]: reduces clonal expansion
